Where a SMILES comes first, the peptide text is derived from it. Where no end group is shown, it is not given here. [ ]: non-standard residue; d: D form.
Key:
[1] = Binding affinity (Kd) between peptide and LPS by isothermal titration calorimeter (ITC); settings: for Kd: 0.2 mM peptide in cell, 2 mM LPS in syringe, PBS, read-out: Kd (calculated by ITC)
Protocol: FP1 is denoted as wild type (WT), and peptides having point mutations for various parts in WT were prepared (FP3, FP5, FP6, and FP9). To increase the interaction with LPS in the residue sequence of FP3, peptides were designed based on an FP3 and LPS-binding model (FP12-NH2 and FP13-NH2), and non-natural amino acid and amino acid isomers (allomeric D-type amino acids) were additionally introduced, thereby designing peptides (allD FP12-NH2, allD FP13-NH2, allD FP-13-9a, allD FP-13-9w, allD FP-13-9k, and allD FP13-NH2 (AcOH)). In addition, an N-terminal PEGylated peptide (PEG-allD FP13-NH2(AcOH)) was additionally designed and synthesized by Anygen Co. Ltd., and then supplied. Using each of the provided peptides, lipopolysaccharide (LPS), and an isothermal titration calorimeter (ITC) for measuring binding affinity (Kd), binding affinity with LPS was confirmed.
Specifically, a method of analyzing binding affinity (Kd) between a peptide and LPS is as follows.
The binding affinity was measured using Malvern MicroCal PEAQ-ITC cell equipment, and to confirm the interaction with LPS, pre-treatment was performed as follows. The volume and shape of a cell sample were 300 μL, coin-shaped, and fixed-in-place; and the syringe rotation rate was 1,200 rpm; and temperatures were 30° C., 35° C., and 25° C.
Before the test, LPS and the peptide were diluted with PBS in advance, thereby obtaining 2 mM LPS and a 0.2 mM peptide. 300 μL of the peptide was put into cells in an ITC device, which had been washed, and 40 μL of LPS was contained in a syringe. Measurement conditions for ITC (temperature, the number of injections) were set, the syringe was inserted into the cell, and the ITC measurement began. When the measurement was completed, the Kd values of LPS and the peptide were calculated through analysis.

[2] = LPS removal rates of reagents prepared with various peptides; settings: for Removal Rate: peptide conjugated to CNBr-activated agarose
Protocol: To confirm an LPS removal rate by preparing a reagent for removing LPS using peptides other than FP12-NH2, LPS removal rates were compared using the peptides listed in Table 11.
Reagents for removing LPS were prepared in one dose by the method of Example 2-2 for each peptide.
More specifically, the reagent for removing LPS was aliquoted by Lot at 2 mL into 5 mL tubes. After centrifugation, the supernatant was removed with a syringe, 2 mL of PBS was added and mixed up and down and centrifuged. […] The mixture was stirred for 2 hours at room temperature. After centrifugation, the supernatant was transferred to a new tube.

| LPS binding affinity compared with FP1 (wild type, WT) [1] | Kd [1] [µM] | Compound | Removal Rate ([2]; feeding LPS 100,000 EU/ml) [%] | Removal Rate ([2]; feeding LPS 10,000 EU/ml) [%] | LPS removal rate, comparison of all polypeptides ([2]; peptides of Table 11 conjugated to CNBr-activated agarose) |
| --- | --- | --- | --- | --- | --- |
| the same as or higher than FP1 | 26.6 | CC(C)C[C@@H](NC(=O)[C@H](N)CCCNC(=N)N)C(=O)N[C@H](CCCNC(=N)N)C(=O)N[C@@H](C(=O)N[C@H](CCCCN)C(=O)N[C@H](CC(C)C)C(=O)N[C@H](CCCNC(=N)N)C(=O)N[C@H](CCCNC(=N)N)C(=O)N[C@H](Cc1ccc(O)cc1)C(=O)N[C@H](CC(C)C)C(=O)N[C@H](CCCNC(=N)N)C(N)=O)C(C)C [allD FP12-NH2, RLRVKLRRYLR-NH2] (H-[dR][dL][dR][dV][dK][dL][dR][dR][dY][dL][dR]-NH2; N-terminus assumed) | 58.6 | – | – |
| the same as or higher than FP1 | 4.78 | CC(C)C[C@@H](NC(=O)[C@H](N)CCCCN)C(=O)N[C@H](CCCNC(=N)N)C(=O)N[C@@H](C(=O)N[C@H](CCCCN)C(=O)N[C@H](CC(C)C)C(=O)N[C@H](CCCNC(=N)N)C(=O)N[C@H](CCCNC(=N)N)C(=O)N[C@H](Cc1ccc(O)cc1)C(=O)N[C@H](CC(C)C)C(=O)N[C@H](CCCNC(=N)N)C(N)=O)C(C)C [allD FP13-NH2, KLRVKLRRYLR-NH2] (H-[dK][dL][dR][dV][dK][dL][dR][dR][dY][dL][dR]-NH2; N-terminus assumed) | 57.7 | – | – |
| the same as or higher than FP1 | 1.99 | CC(C)C[C@@H](NC(=O)[C@H](N)CCCCN)C(=O)N[C@H](CCCNC(=N)N)C(=O)N[C@@H](C(=O)N[C@H](CCCCN)C(=O)N[C@H](CC(C)C)C(=O)N[C@H](CCCNC(=N)N)C(=O)N[C@H](CCCNC(=N)N)C(=O)N[C@H](CCCCN)C(=O)N[C@H](CC(C)C)C(=O)N[C@H](CCCNC(=N)N)C(N)=O)C(C)C [allD-FP-13-9k-NH2, Klrvklrrklr-NH2] (H-[dK][dL][dR][dV][dK][dL][dR][dR][dK][dL][dR]-NH2; N-terminus assumed) | – | – | – |
| the same as or higher than FP1 | 17.4 | CC(C)C[C@@H](NC(=O)[C@H](N)CCCCN)C(=O)N[C@H](CCCNC(=N)N)C(=O)N[C@@H](C(=O)N[C@H](CCCCN)C(=O)N[C@H](CC(C)C)C(=O)N[C@H](CCCNC(=N)N)C(=O)N[C@H](CCCNC(=N)N)C(=O)N[C@H](Cc1c[nH]c2ccccc12)C(=O)N[C@H](CC(C)C)C(=O)N[C@H](CCCNC(=N)N)C(N)=O)C(C)C [allD-FP-13-9w-NH2, Klrvklrrwlr-NH2] (H-[dK][dL][dR][dV][dK][dL][dR][dR][dW][dL][dR]-NH2; N-terminus assumed) | – | – | – |
| the same as or higher than FP1 | 19.5 | CC(C)C[C@@H](NC(=O)[C@H](N)CCCCN)C(=O)N[C@H](CCCNC(=N)N)C(=O)N[C@@H](C(=O)N[C@H](CCCCN)C(=O)N[C@H](CC(C)C)C(=O)N[C@H](CCCNC(=N)N)C(=O)N[C@H](CCCNC(=N)N)C(=O)N[C@H](Cc1ccc(O)cc1)C(=O)N[C@H](CC(C)C)C(=O)N[C@H](CCCNC(=N)N)C(N)=O)C(C)C [allD-FP-13-NH2 (AcOH), KLRVKLRRYLR-NH2] (H-[dK][dL][dR][dV][dK][dL][dR][dR][dY][dL][dR]-NH2; N-terminus assumed) | – | – | – |
| the same as or higher than FP1 | 118 | KLRVKLRRYLR-NH2 [FP13-NH2, KLRVKLRRYLR-NH2] | – | 94.8 | – |
| the same as or higher than FP1 | 11.1 | LRLGVELKRYLR [FP6, LRLGVELKRYLR] | – | – | – |
| the same as or higher than FP1 | 0.242 | RLRVKLRRYLR-NH2 [FP12-NH2, RLRVKLRRYLR-NH2] | 79.4 | 99.9 | the highest removal rate |

| Compound | LPS binding affinity compared with FP1 (wild type, WT) [1] | Kd [1] [µM] | Removal Rate ([2]; feeding LPS 100,000 EU/ml) [%] | Removal Rate ([2]; feeding LPS 10,000 EU/ml) [%] | LPS removal rate, comparison of all polypeptides ([2]; peptides of Table 11 conjugated to CNBr-activated agarose) |
| --- | --- | --- | --- | --- | --- |
| KLGVEAKRYLD [FP1(WT), KLGVEAKRYLD, reference compound] | – | 238 | – | – | – |
| KLGVEAKRYLR [FP3, KLGVEAKRYLR] | the same as or higher than FP1 | 332 | – | – | – |
| KLGVEALRYLD [FP9, KLGVEALRYLD] | the same as or higher than FP1 | 326 | – | – | – |
| LRLGVEAKRYLR [FP5, LRLGVEAKRYLR] | the same as or higher than FP1 | 854 | – | – | – |

From patent US20230287048A1, “COMPOSITION AND KIT FOR REMOVING LIPOPOLYSACCHARIDE” (HLB SCIENCE INC., priority 2020, published 2023)
